Test results: patent publication US20260184712A1, “Heterocyclic Compounds as ENT Inhibitors and Compounds for Use in the Treatment of Cancers” (iTeos Belgium SA, priority 2022, published 2026)
pIC50: −log10 of the molar value.

system: stimulated primary human T cells; test: T cell proliferation assay, Condition B (X-VIVO15, 2% HSA and 0.1% AAG); type: cell-based; settings: Homo sapiens, T-cell, 96 h; Condition B: X-VIVO15 medium containing HSA and α1-Acid Glycoprotein; anti-CD3/anti-CD28 beads, ATP, 4 days; CFSE-lo T cells
Method in brief: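 CFSE-labelled CD3+ T cells from healthy donors (2×10^4/well) in X-VIVO15 with 2% HSA and 0.1% AAG were stimulated with anti-CD3/CD28 beads. After 30 min pre-incubation with inhibitor, ATP was added and cells were cultured 4 days at 37° C. Flow cytometry gave % CFSE^lo cells, with IC50/IC90 and pICF from curve fits.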

Structure (SMILES)	pIC50
C[C@H]1O[C@@H](n2cnc3c(N4CCc5ccc([N+](=O)[O-])cc5C4)ncnc32)[C@H](O)[C@@H]1O [Compound 151]	6.30 to 7.70
C[C@H]1O[C@@H](n2c(NC3CCC(O)CC3)nc3c(OCc4ccc([N+](=O)[O-])cc4)ncnc32)[C@H](O)[C@@H]1O (some centres unmarked) [Compound 28]	7.70 to 9.00
C[C@H]1O[C@@H](n2cnc3c(OCc4ccc([N+](=O)[O-])cc4)ncnc32)[C@H](O)[C@@H]1O [Compound 166]	6.30 to 7.70
C[C@H]1O[C@@H](n2c(NC3CCCC3)nc3c(OCc4ccc([N+](=O)[O-])cc4)ncnc32)[C@H](O)[C@@H]1O [Compound 6]	7.70 to 9.00
C[C@H]1O[C@@H](n2cnc3c(OCc4ccc(OC(F)F)cc4)ncnc32)[C@H](O)[C@@H]1O [Compound 173]	6.30 to 7.70
OCCOC[C@H]1O[C@@H](n2cnc3c(OCc4ccc(OC(F)(F)F)cc4)ncnc32)[C@H](O)[C@@H]1O [Compound 175]	6.30 to 7.70
C[C@H]1O[C@@H](n2c(N[C@H]3CCC(F)(F)C3)nc3c(OCc4ccc(C#N)cc4)ncnc32)[C@H](O)[C@@H]1O [Compound 82]	6.30 to 7.70
C[C@H]1O[C@@H](n2c(NC3CCOCC3)nc3c(OCc4ccc(OC(F)F)nc4)ncnc32)[C@H](O)[C@@H]1O [Compound 75]	6.30 to 7.70
C[C@H]1O[C@@H](n2c(NC3CCOCC3)nc3c(OCc4ccc(C#N)cc4)ncnc32)[C@H](O)[C@@H]1O [Compound 73]	6.30 to 7.70
C[C@H]1O[C@@H](n2cnc3c(SCc4ccc([N+](=O)[O-])cc4)ncnc32)[C@H](O)[C@@H]1O [Compound 147]	6.30 to 7.70

target: T1, human ENT1 (Homo sapiens, UniProt Q99808); test: Uridine transport inhibition assay, ENT1-mediated uptake in MDCKII cells; type: cell-based; settings: MDCKIIENT1-LV cells, probe uridine 1 μM, pre-incubation 30 min, incubation 1 min
T1 construct: JAR cells expressing ENT1 were purchased from ATCC; host or cells: JAR cells
T1 sequence (Q99808 1-456): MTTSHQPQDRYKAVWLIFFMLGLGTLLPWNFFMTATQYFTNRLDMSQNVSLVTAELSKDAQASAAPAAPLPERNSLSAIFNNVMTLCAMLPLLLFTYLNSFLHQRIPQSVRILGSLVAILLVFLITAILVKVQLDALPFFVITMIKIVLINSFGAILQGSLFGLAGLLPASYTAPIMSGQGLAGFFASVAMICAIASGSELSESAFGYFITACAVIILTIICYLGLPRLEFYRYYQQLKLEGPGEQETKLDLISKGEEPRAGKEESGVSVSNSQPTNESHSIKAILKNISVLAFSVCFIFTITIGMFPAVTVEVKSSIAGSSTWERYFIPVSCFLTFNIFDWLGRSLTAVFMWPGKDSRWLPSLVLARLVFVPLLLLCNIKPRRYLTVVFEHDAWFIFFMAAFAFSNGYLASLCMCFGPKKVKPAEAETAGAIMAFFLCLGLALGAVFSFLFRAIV
Protocol: The goal of this study was to determine the potency and selectivity of ENT1 inhibitors by measuring ENT1 and ENT2-mediated transport using an in vitro cellular uptake assay.
Human ENT1 and ENT2 transporters were stably expressed in Madin-Darby Canine Kidney II (MDCKII) cells via transduction. Cell lines overexpressing the relevant ENT1 or ENT2 molecules were preincubated with a dose range of the relevant compound for 30 minutes before introduction of the specific substrate at the concentration indicated in the Table assay parameters below. The transporter assay was conducted for the time specified in the Table assay parameters before the specific uptake of the substrate into the cells was quantified. Specific uptake was determined by comparing the uptake from the cells treated with the relevant compounds and the uptake by cells not overexpressing the transporter in question.
Specific uptake for each concentration of the test sample was normalized to the DMSO control value to generate a relative accumulation value (or relative transporter activity). Data were plotted against the log molar concentration of the test reagent used. IC50 values were generated with Prism version 9.4.1 and the following function: log(inhibitor) vs. response—Variable slope (four parameters).

pIC50	Structure (SMILES)
8.70 to 10.00	C[C@H]1O[C@@H](n2cnc3c(N4CCc5ccc([N+](=O)[O-])cc5C4)ncnc32)[C@H](O)[C@@H]1O [Compound 151]
8.70 to 10.00	C[C@H]1O[C@@H](n2cnc3c(OCc4ccc([N+](=O)[O-])cc4)ncnc32)[C@H](O)[C@@H]1O [Compound 166]
8.70 to 10.00	C[C@H]1O[C@@H](n2cnc3c(OCc4ccc(OC(F)F)cc4)ncnc32)[C@H](O)[C@@H]1O [Compound 173]
8.70 to 10.00	OCCOC[C@H]1O[C@@H](n2cnc3c(OCc4ccc(OC(F)(F)F)cc4)ncnc32)[C@H](O)[C@@H]1O [Compound 175]
> 10.00	C[C@H]1O[C@@H](n2cnc3c(SCc4ccc([N+](=O)[O-])cc4)ncnc32)[C@H](O)[C@@H]1O [Compound 147]

Further lines, the compound ahead of its results:

Structure (SMILES)	pIC50
C[C@H]1O[C@@H](n2c(NC3CCC(O)CC3)nc3c(OCc4ccc([N+](=O)[O-])cc4)ncnc32)[C@H](O)[C@@H]1O (some centres unmarked) [Compound 28]	8.70 to 10.00
C[C@H]1O[C@@H](n2c(NC3CCCC3)nc3c(OCc4ccc([N+](=O)[O-])cc4)ncnc32)[C@H](O)[C@@H]1O [Compound 6]	8.70 to 10.00
C[C@H]1O[C@@H](n2c(N[C@H]3CCC(F)(F)C3)nc3c(OCc4ccc(C#N)cc4)ncnc32)[C@H](O)[C@@H]1O [Compound 82]	8.70 to 10.00
C[C@H]1O[C@@H](n2c(NC3CCOCC3)nc3c(OCc4ccc(OC(F)F)nc4)ncnc32)[C@H](O)[C@@H]1O [Compound 75]	8.70 to 10.00
C[C@H]1O[C@@H](n2c(NC3CCOCC3)nc3c(OCc4ccc(C#N)cc4)ncnc32)[C@H](O)[C@@H]1O [Compound 73]	8.70 to 10.00
